Results reported in US20200353038A1, “PIF-TRANSFECTED CELLS AND METHODS OF USE” (BIOINCEPT, LLC, priority 2013, published 2020).

Experiments:
[1] = system: HEK293 cells; assay: Transient transfection in HEK293 cells, toxicity; format: cell-based, human; settings: intracellular expression, cultured for more than 72 hrs
[2] = target: T1, IDE (Homo sapiens, UniProt P14735); assay: ProtoArray binding, IDE
T1 construct: purchased Invitrogen

[3] = system: PBMCs
Text: Blood samples without identifiers were obtained from males and nonpregnant females after obtaining consent at MDSPS, WA. The studies were approved by the ethical committee at the institute. From the excess specimen, PBMCs were isolated using standard Ficoll Hypaque, a density gradient method. […] Samples were collected in duplicate at 24 and 48 hrs and used for global mRNA analysis.
After culture, PBMCs were collected and the chemically fragmented cRNA was then hybridized on Affymetrix HGU133 Plus 2.0 human chips in a GeneChip Hybridization Oven 640 (Affymetrix) and screened for 18,400 human genes and expressed-sequence tags, followed by fluorescence labeling with Fluidics Station 450 (Affymetrix) and optical scanning with an Affymetrix GeneChip Scanner 3000 (Codon Biosciences, LP, Houston, Tex.). P0.05 and >2-fold changes were considered as significant. Data is deposited at NCBI Geo (GSE18291).
For gene experiments, data was first analyzed using student's t-test, with p<0.05 results, followed by fold-change testing, with a cutoff 2-fold only reported.

[4] = system: Kv1.3b; assay: ProtoArray binding, Kv1.3b; parameters: species or system human
Chain of Kv1.3b (Q13303 40-367 limits assumed): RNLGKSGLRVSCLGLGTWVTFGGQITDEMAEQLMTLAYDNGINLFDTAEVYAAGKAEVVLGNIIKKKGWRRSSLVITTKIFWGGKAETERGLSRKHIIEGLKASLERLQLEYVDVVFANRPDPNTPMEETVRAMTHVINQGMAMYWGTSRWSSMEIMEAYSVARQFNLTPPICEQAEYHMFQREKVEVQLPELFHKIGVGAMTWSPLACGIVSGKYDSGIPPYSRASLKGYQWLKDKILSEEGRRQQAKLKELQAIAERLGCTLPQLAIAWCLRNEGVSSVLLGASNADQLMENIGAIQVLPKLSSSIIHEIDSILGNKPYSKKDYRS

[5] = system: female Swiss mice; settings: Alzet pump subcutaneously, PIF 4.2 mg/ml (1 mg/kg/die), read days 14-16 pi
Experimental: 30 Swiss female mice and 30 Swiss male mice, 8-10 weeks old, were matched overnight for three consecutive days. The next morning, the presence of a vaginal plug was verified. 20 female Swiss mice positive for the vaginal plug were selected for the experiment.
Mice at days 1-3 post-insemination (pi) were anesthetized with ketamine and domitor 200 μl. […] The mice were located singularly in separated cages. […] At days 6-8 pi, the mice were treated with LPS […] or with PBS. At days 14-16 pi, the mice were euthanized and investigated for vital fetuses and for aborts. Mice with no vital fetuses nor signs of abortion were considered to carry 10 aborts for statistical purposes. The groups were compared with Fisher exact test, p<0.05 was considered significant (FIG. 22).

[6] = target: NEK11 (Homo sapiens, UniProt Q8NG66); settings: ProtoArray, minor binding target
Chain of NEK11 (Q8NG66 whole entry): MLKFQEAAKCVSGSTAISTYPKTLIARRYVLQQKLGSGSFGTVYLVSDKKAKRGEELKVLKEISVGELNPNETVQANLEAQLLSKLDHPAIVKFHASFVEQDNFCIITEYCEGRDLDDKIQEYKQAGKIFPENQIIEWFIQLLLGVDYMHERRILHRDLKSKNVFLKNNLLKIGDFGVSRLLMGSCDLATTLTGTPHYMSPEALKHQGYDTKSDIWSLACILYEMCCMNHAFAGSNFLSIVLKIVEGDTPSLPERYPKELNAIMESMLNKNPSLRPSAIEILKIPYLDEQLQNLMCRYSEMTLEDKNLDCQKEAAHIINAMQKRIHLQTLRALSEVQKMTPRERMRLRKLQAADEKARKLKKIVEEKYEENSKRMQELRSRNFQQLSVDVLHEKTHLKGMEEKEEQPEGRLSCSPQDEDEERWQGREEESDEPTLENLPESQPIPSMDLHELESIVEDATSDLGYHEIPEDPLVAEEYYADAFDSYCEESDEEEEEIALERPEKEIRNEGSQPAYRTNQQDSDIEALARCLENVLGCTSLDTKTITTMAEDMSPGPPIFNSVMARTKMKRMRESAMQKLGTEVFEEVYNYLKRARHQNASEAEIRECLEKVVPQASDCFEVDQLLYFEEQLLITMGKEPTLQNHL
Experimental: (§1) Unbound probe was washed off, and arrays were assessed by a fluorescence microarray scanner. […] As a negative control, an array was incubated with wash buffer while calmodulin kinase was used as a positive control detected by Alexa Fluor 647-conjugated anti-VS antibody.

[7] = target: ITK (Homo sapiens, UniProt Q08881); settings: ProtoArray
Chain of ITK (Q08881 whole entry): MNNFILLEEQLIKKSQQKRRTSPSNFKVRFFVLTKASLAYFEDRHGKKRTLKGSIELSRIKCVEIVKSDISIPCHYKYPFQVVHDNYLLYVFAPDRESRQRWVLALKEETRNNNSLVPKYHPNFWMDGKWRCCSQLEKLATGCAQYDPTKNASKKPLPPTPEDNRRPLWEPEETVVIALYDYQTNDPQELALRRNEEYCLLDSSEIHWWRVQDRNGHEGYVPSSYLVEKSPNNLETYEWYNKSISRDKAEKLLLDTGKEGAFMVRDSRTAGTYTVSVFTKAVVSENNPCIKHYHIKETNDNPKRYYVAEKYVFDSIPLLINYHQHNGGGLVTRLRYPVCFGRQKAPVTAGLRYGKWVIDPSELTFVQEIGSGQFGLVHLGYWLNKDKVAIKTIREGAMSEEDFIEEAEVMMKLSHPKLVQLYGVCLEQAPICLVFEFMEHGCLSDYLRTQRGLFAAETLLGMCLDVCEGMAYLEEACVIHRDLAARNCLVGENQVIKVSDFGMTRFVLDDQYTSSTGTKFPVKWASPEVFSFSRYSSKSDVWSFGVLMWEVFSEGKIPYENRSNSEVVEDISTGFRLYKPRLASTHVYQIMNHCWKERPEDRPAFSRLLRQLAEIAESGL
Experimental: as §1

[8] = target: Platelet-Derived Growth Factor-β(PDGFP) (Homo sapiens, UniProt P01127); settings: ProtoArray
Chain of Platelet-Derived Growth Factor-β(PDGFP) (P01127 82-190): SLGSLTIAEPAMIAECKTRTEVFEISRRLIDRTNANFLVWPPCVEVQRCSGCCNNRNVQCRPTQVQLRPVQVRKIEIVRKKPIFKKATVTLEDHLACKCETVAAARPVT
Experimental: as §1

[9] = target: Cass4 (Homo sapiens, UniProt Q9NQ75); settings: ProtoArray, minor binding target
Chain of Cass4 (Q9NQ75 whole entry): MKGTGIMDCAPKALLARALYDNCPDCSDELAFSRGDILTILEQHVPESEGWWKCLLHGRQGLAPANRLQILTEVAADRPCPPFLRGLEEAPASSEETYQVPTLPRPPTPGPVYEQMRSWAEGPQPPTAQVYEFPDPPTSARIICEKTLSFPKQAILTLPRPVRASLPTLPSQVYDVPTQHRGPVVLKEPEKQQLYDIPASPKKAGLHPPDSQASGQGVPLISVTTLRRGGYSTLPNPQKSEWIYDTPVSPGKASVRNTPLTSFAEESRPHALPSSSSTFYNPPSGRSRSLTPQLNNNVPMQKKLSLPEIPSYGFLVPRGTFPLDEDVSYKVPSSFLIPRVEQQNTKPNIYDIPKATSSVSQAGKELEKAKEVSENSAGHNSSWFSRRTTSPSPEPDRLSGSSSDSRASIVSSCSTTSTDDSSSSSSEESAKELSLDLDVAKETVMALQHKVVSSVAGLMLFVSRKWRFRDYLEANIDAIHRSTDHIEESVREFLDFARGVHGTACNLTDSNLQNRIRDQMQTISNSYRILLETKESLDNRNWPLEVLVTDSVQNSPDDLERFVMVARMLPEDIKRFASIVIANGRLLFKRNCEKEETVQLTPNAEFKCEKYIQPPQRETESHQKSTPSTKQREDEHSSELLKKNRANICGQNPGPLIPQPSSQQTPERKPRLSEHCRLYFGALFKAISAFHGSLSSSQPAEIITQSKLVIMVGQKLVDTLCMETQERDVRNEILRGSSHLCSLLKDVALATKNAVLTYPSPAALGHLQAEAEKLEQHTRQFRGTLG
Experimental: as §1

[10] = target: DAPK3, (ZIPK) (Homo sapiens, UniProt O43293); settings: ProtoArray, minor binding target
Chain of DAPK3, (ZIPK) (O43293 whole entry): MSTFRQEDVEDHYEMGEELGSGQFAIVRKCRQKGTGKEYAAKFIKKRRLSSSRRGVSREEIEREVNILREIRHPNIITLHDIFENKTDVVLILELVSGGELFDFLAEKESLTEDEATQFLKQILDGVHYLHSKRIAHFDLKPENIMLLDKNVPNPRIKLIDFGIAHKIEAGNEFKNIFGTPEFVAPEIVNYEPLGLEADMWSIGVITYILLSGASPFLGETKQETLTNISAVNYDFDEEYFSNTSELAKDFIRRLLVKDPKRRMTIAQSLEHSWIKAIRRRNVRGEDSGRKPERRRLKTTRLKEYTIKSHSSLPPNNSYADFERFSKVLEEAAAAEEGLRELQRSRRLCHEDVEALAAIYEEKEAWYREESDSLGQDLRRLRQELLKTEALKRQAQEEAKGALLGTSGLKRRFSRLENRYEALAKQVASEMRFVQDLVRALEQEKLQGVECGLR
Experimental: as §1

[11] = target: Clorf87 (Homo sapiens, UniProt Q8N0U7); settings: ProtoArray, minor binding target
Chain of Clorf87 (Q8N0U7 whole entry): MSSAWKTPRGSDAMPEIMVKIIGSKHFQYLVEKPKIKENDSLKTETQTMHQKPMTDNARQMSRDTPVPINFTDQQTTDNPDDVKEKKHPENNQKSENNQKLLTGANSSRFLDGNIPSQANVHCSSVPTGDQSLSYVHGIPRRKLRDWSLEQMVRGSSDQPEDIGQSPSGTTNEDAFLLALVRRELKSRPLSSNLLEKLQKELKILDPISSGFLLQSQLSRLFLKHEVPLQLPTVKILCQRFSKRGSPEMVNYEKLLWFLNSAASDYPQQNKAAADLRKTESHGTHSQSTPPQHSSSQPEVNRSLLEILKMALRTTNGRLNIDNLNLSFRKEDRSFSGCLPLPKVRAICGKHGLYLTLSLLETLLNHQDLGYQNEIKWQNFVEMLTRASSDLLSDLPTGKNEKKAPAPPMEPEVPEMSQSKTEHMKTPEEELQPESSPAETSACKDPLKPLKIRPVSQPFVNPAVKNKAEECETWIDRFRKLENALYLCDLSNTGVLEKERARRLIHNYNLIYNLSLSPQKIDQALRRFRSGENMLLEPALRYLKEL
Experimental: as §1

[12] = target: outer dense fiber of the sperm tail-2 (ODF2L) (Homo sapiens, UniProt Q9ULJ1); settings: ProtoArray, minor binding target
Chain of outer dense fiber of the sperm tail-2 (ODF2L) (Q9ULJ1 whole entry): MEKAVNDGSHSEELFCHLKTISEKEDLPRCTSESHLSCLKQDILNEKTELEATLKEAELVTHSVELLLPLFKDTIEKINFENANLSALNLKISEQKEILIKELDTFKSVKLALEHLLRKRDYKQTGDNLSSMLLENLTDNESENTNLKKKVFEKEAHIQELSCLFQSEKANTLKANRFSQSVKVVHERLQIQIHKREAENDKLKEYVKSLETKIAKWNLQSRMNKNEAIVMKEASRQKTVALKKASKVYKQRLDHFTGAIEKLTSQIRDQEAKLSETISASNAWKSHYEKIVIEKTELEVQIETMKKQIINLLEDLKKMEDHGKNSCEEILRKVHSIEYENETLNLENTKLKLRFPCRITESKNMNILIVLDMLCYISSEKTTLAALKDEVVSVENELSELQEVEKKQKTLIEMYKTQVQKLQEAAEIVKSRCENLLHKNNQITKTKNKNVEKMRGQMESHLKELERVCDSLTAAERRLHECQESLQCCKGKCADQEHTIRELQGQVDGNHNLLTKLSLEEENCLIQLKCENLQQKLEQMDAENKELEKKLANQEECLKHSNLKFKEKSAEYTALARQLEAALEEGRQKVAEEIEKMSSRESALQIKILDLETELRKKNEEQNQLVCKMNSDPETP
Experimental: as §1

[13] = target: Tissue-Specific Transplantation Antigen P35 (FX Enzyme) (Homo sapiens, UniProt Q13630); settings: ProtoArray
Chain of Tissue-Specific Transplantation Antigen P35 (FX Enzyme) (Q13630 whole entry): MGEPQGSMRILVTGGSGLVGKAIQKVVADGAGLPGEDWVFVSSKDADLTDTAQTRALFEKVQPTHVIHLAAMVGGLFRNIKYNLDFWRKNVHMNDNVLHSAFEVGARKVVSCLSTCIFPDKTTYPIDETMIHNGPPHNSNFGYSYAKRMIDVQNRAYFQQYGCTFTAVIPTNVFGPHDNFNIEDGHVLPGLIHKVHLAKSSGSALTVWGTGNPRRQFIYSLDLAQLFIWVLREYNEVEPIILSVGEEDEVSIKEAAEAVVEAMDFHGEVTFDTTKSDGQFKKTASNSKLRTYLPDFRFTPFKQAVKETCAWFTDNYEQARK
Experimental: as §1

[14] = system: 9000 human protein targets; assay: Alexa-PIF interaction with ProtoArray Human Protein Microarrays v5.0; format: binding; settings: PIF-Alexa 647 250 nM and 2.5 pM; protein not named
[15] = cell state not given, PIF 50 nM
[16] = following co-activation (anti-CD3/anti-CD28), PIF 50 nM
[17] = naive cells (by context), PIF 50 nM
[18] = naive cells, PIF 50 nM, up to 48 hrs

## DYKDDDDKGGGMVRIKPGSANKPSDDGGYPYDVPDYA (FLAG-(Gly)2-PIF-(Gly)2-HA) [FLAG-HA tagged PIF peptide]
[1]
  toxicity or cell death of transfected cells: without signs of toxicity or cell death

## MVRIKPGSANKPSDD [PIF]
[2]; ProtoArray
  binding to IDE, in words: prime PIF peptide target
[3]; PBMCs exposed to PIF
  IDE encoding gene expression: not affected
  Kv1.3b channel genes expression: only minimally affected
[3]; PBMCs, PIF 50 nM
  six additional macropain genes family members, expression (FIG. 21): upregulated
[3]; activated cells (by context), PIF 50 nM
  ADAM 17 gene expression: −2.2 fold
[3]; activated cells, PIF 50 nM
  CDC42 gene expression: −2.2 fold
  MCM2 gene expression: 2.8 fold
  SPEC 1 gene expression: −2.2 fold
  TSTA3 (FX) gene expression: 3.6 fold
  cell division cycle 25A (CDC25A) gene expression: 6 fold
  osteonectin gene expression: −2.2 fold
[3]; [15]
  H2A O/L gene expression (decrease): 2 fold
  H2A gene expression (decrease): 4.2 fold
  H3F3A gene expression: −3 fold
[3]; following activation, PIF 50 nM
  ATP1B1 gene expression: −2.4 fold
[3]; [16]
  IGFBP6 gene expression: −2.4 fold
  UDP-glucose dehydrogenase (UGDH) gene expression: −2 fold
  insulin receptor (INSR) gene expression: −2.8 fold
  macropain 26S subunit, non-ATPase, 10 (PSMD10) gene expression: 2.4 fold
[3]; [17]
  SCN12 gene expression: 5.4 fold
  SCNA1 (Na+ voltage-gated Al) gene expression: 7.8 fold
[3]; naive cells as printed (last sentence of b342)
  ITK expression, in words: mildly decreased
[3]; naive cells, PIF 50 nM
  ITK gene expression: 1.6 fold
  K+ channel (KCNK4) gene expression: 2.8 fold
[3]; [18]
  IGF-binding protein-3 (IGF219 BP3) gene expression: 4.6 fold
  insulin-like growth factor-1 (IGF1) gene expression: 2.8 fold
[4]; ProtoArray
  binding to Kv1.3b channels, in words: targets
[5]; LPS 0.1 pg/gr days 6-8 pi
  LPS-induced abortion: decreases
[5]; ketamine and domitor
  anesthesia-induced abortion: prevents
[6]
  binding to NEK11, in words: bind
[7]
  binding to ITK, in words: Targets
[8]
  binding to PDGFb, in words: Targets
[9]
  binding to Cass4, in words: target
[10]
  binding to DAPK3 (ZIPK), in words: targets
[11]
  binding to Clorf87, in words: target
[12]
  binding to ODF2L, in words: observed
[13]
  binding to FX enzyme, in words: Targets

## PIF-Alexa 647: Alexafluor647 conjugate of synthetic PIF (MVRIKPGSANKPSDD)
[14]
  Z-Score of one of the 11 interacting proteins: greater than 3
[2]; PIF-Alexa 647 250 nM and 2.5 pM
  Z score: greater than 2
[4]; Kv1.3b two variants, PIF-Alexa 647 250 nM and 2.5 pM
  Z score: greater than 2
